In data set [1] the target is T1, RosA (N,N-8-demethyl-8-amino-D-riboflavin dimethyltransferase) (Streptomyces davaonensis, UniProt K4RFM2).
T1 construct: full length, hexahistidine-tagged (pET24a(+)rosA-His6, pFJ02), tag kept, E. coli Rosetta 2 (DE3); 353 amino acids; subunit 38 kDa, native 77 kDa, homodimer
Nature of the data set: isothermal titration calorimetry. Type of data set: binding. From the text:
isothermal titration calorimetry on RosA (N,N-8-demethyl-8-amino-D-riboflavin dimethyltransferase)
Background: Isothermal titration calorimetry measures the heat released or taken up as one component is titrated into another.

The target of data set [2] is T1, RosA (N,N-8-demethyl-8-amino-D-riboflavin dimethyltransferase). The data set can be described thus: initial rates of RoF formation at […] nm, Henderson plot (tight-binding inhibition). Type of data set: biochemical.
Data set [3] deals with N,N‐8‐demethyl‐8‐amino‐D‐riboflavin dimethyltransferase (RosA), hexahistidine‐tagged (Streptomyces davawensis). Nature of the data set: SEC; Superdex 200 10/300 GL, 25 °C, 50 mM Tris-HCl pH 8.0 with 100 mM NaCl, 0.5 mL/min, calibrated with standard proteins; native mass about 77 kDa against a subunit mass of 38 kDa.
Substrate in data set [4]: C[S+](CC[C@H](N)C(=O)O)C[C@H]1O[C@@H](n2cnc3c(N)ncnc32)[C@H](O)[C@@H]1O
The data set can be described thus: purified protein. Conditions: varied AF (20-100 μM), 50 mM Tris/HCl pH 8.0, 100 mM NaCl, 25 °C, random-order bi-bi.

Substrate in data set [5]: Cc1cc2nc3c(=O)[nH]c(=O)nc-3n(C[C@H](O)[C@H](O)[C@H](O)CO)c2cc1N
The data set can be described thus: purified protein. In kind it is biochemical, Streptomyces davaonensis. Conditions: varied SAM (20-250 μM), 50 mM Tris/HCl pH 8.0, 100 mM NaCl, 25 °C, random-order bi-bi.

Like-named read-outs stand apart in the source and are kept apart here.

On to `Nc1ncnc2c1ncn2[C@@H]1O[C@H](CSCC[C@H](N)C(=O)O)[C@@H](O)[C@H]1O` [SAH], for which, in data set [1] (read-out: SAH), the Kd worked out at 2 ± 0.1 µM. Also, affinity in data set [2] was put at a Ki of 7 µM.

`C[S+](CC[C@H](N)C(=O)O)C[C@H]1O[C@@H](n2cnc3c(N)ncnc32)[C@H](O)[C@@H]1O` (some centres unmarked) [SAM] returned a Kd in data set [1] of 22 ± 2 µM.

“N,N‐8‐demethyl‐8‐amino‐D‐riboflavin dimethyltransferase (RosA), hexahistidine‐tagged (enzyme)”: the stoichiometry N (in general, the number of molecules, sites or subunits per partner or assembly) in data set [3] was 2.

In the case of `Cc1cc2nc3c(=O)[nH]c(=O)nc-3n(C[C@H](O)[C@H](O)[C@H](O)CO)c2cc1N(C)C` [RoF], in data set [1] (read-out: RoF), the Kd came to 0.8 ± 0.05 µM. Moreover, in data set [2], the inhibition constant Ki (as a rule, a measure of affinity in units of concentration, obtained from inhibition or displacement) was determined as 27 µM.

Regarding `Cc1cc2nc3c(=O)[nH]c(=O)nc-3n(C[C@H](O)[C@H](O)[C@H](O)CO)c2cc1N` [AF], the Kd in data set [1] (read-out: AF) was found to be 10 ± 1 µM.

B1: RosA (N,N-8-demethyl-8-amino-D-riboflavin dimethyltransferase) (Streptomyces davaonensis JCM 4913) (protein)
chain: MRPEPTEHPERTAAQRLYQYNVDLKVAFVLYAVAKLHLPDLLADGPRTTADLAAATGSDPSRLRRLLRAAAGADALREVPEDSFELAPMGDLLRSGHPRSMRGMTTFFAEPDVLAAYGDLVESVRTGVPAFQLRHREPLYDFLARPQHKEVRDEFDAAMVEFGQYFADDFLTSFDFGRFTRFADIGGGRGQFLAGVLTAVPSSTGVLVDGPAVAASAHKFLASQNLTERVEVRIGDFFDVLPTGCDAYVLRGVLEDWADADAVRLLVRIRQAMGDAPEARLLILDSVIGETGELGKVLDLDMLVLVEGEHRTRAQWDDLLARAGFDIVGIHPAGDVWAVIECRGTAG
notes: full length, hexahistidine-tagged (pET24a(+)rosA-His6, pFJ02), tag kept, E. coli Rosetta 2 (DE3); 353 amino acids; subunit 38 kDa, native 77 kDa, homodimer
As to B1, in the data set “purified protein [4]”, the Km – broadly, the concentration of substrate that gives half-maximal velocity – came out at 70 µM and the kcat (as a rule, the maximal rate divided by the concentration of active sites) was 0.06 min⁻¹. In “purified protein [5]”, the Km is 4 µM and the kcat is 0.06 min⁻¹.

The values are drawn from paper PMC4982073, “Structural and kinetic studies on RosA, the enzyme catalysing the methylation of 8‐demethyl‐8‐amino‐D‐riboflavin to the antibiotic roseoflavin” (The Febs Journal, 2016).
